Measured values from PMC8719521, “Spectral, Anti-Inflammatory, Anti-Pyretic, Leishmanicidal, and Molecular Docking Studies, Against Selected Protein Targets, of a New Bisbenzylisoquinoline Alkaloid” (Frontiers in Chemistry, 2021).

How the values were obtained:
yeast-induced pyrexia = test: Anti-pyretic studies, brewer's yeast-induced pyrexia; assay type: in vivo, Albino rats; conditions: for activity against yeast-induced hyperthermia: 10 and 20 mg/kg s.c., 30, 60, and 120 min
Protocol: (§1) Albino rats (180–200 g) of either sex were used in all experiments. The animals were kept under standard laboratory conditions (25 °C and light/dark cycles, i.e., 12/12 h) and were fed with standard food and water ad libitum.
Albino rats of either sex weighing 180–200 g were used for anti-pyretic studies. The animals were divided into five groups with each group having six albino rats (n = 6). All the animals were given free access to food and water. Basal rectal temperature was measured using a digital clinical thermometer before injecting the yeast. Hyperthermia was induced in rats by sub-cutaneous (s.c.) injection of 20% aqueous suspension of brewer’s yeast (20 ml/ kg) in the back below the nape of the neck ([Loux et al., 1972]). Group 1 was treated with normal saline as a control, and group 2 was treated with indomethacin (10 mg/kg, s. c) as the standard drug, while the remaining groups 3–5 were treated with compound 1–5 (10 mg/ kg and 20 mg/ kg, s. c). After 24 h from the yeast injection, the rise in the rectal temperature was recorded at regular intervals of 30, 60, and 120 min after drug administration.

[1] = test system: promastigotes of Leishmania tropica (clinical field isolate KWH23); test: Anti-leishmanial assay on promastigotes; assay type: cell-based; conditions: for anti-leishmanial properties: at all four tested concentrations, 48 h
Protocol: The initial culture was raised in the 5 ml M-199 medium supplemented with 10% heat-inactivated fetal bovine serum (HI-FBS), 100 μg/ ml penicillin, 100 μg/ ml streptomycin, 50 μg/ ml kanamycin, and 5 μg/ ml of hemin in a 15-ml culture flask. The culture flask was kept in an incubator at 26°C, and the medium was changed every third day. The cultures were given enough time (10–14 days) to fully develop and promastigotes to reach the metacyclic stage. The culture was then sub-passaged by pouring the contents of the flask containing the promastigotes into a centrifuge tube. The tubes were then spun in a Sigma centrifuge at 2000 rpm for 12 min. After spinning, the medium was carefully poured off leaving the pellet only. This pellet was re-suspended in the 2–4 ml growth medium, and new cultures were established. The primary culture was used for sensitivity assays, and additional cultures were cryopreserved in liquid nitrogen at −196°C for future use.
The culture of L. tropica clinical field isolate KWH23 was established from already cryopreserved collection in the Department of Zoology, University of Peshawar. The initial culture was raised in the 5 ml M-199 medium supplemented with 10% heat-inactivated fetal bovine serum (HI-FBS), 100 μg/ ml penicillin, 100 μg/ ml streptomycin, 50 μg/ ml kanamycin, and 5 μg/ ml of hemin in a 15-ml culture flask. Two experiments were run at a time under the same conditions in 96-well flat-bottom plates. The promastigotes were counted in culture suspension by using the improved Neubauer hemocytometer. From the viable promastigotes bulk culture (4 × 10^6/ ml), 1 × 10^5 promastigotes/well in the 200 µL fresh M-199 medium were seeded in 96-well plates. Four different concentrations for each compound were applied, and one row of 12 wells was kept as a control with the growth medium only. The 96-well plates were incubated at 26°C for 48 h. After 48 h, the number of promastigotes in each well was counted microscopically using the improved Neubauer hemocytometer.

[2] = test system: carrageenan-induced paw edema; test: Carrageenan-induced paw edema studies; assay type: in vivo, Albino rats; conditions: for percent inhibition of carrageenan-induced paw edema: right after the carrageenan injection, p < 0.05
Protocol: as §1
Albino rats of either sex (180–200 g) were used to assess anti-inflammatory activity. The animals were randomly divided into five groups with each group having six albino rats (n = 6). Pedal inflammations in albino rats of either sex were produced according to the method described by Winter et al. (1962). Group 1 was treated with normal saline (5 ml/ kg) and group 2 was treated with oxyphenylbutazone (10 mg/ kg, i.p.), while groups 3–5 were treated with compounds 1–5 (10 mg/ kg and 20 mg/ kg, i.p.). After 30 min, 0.05 ml 1% carrageenan sodium salt (BDH) was subcutaneously injected into the plantar aponeurosis tissue of the right hind paw of each rat. The inflammation was measured using a plethysmometer (Apelex, France) immediately after +3 h of carrageenan injection. The anti-inflammatory activity was calculated using the following formula: 100(1−a−x/b−y), where “b” is the mean paw volume of control rats after carrageenan injection and “y” before the injection; whereas “x” is the mean paw volume of treated rats before injection and “a” is the mean paw volume after carrageenan injection.

## COc1ccc2cc3[n+](cc2c1OC)CCc1cc2c(cc1-3)OCO2 [Compound 2, berberine]
yeast-induced pyrexia
  activity against yeast-induced hyperthermia: significantly active
[1]
  anti-leishmanial properties: strong anti-leishmanial properties

## COc1cc2c(cc1OC)-c1cc3ccc(OC)c(OC)c3c[n+]1CC2 [Compound 4, palmatine]
yeast-induced pyrexia
  activity against yeast-induced hyperthermia: significantly active
[1]
  anti-leishmanial properties: strong anti-leishmanial properties

## COc1cc2c3cc1Oc1c(O)ccc(c1O)CC1c4c(cc(OC)c(OC)c4Oc4ccc(cc4)CC3N(C)CC2)CCN1C (centres unmarked) [Compound 1, chondrofolinol]
yeast-induced pyrexia; 10 and 20 mg/kg of body weight
  rectal temperature in yeast-induced pyrexia: significantly reduced
yeast-induced pyrexia
  activity against yeast-induced hyperthermia: significantly active
yeast-induced pyrexia; at both concentrations (10 and 20 mg/kg)
  anti-pyretic potential: milder anti-pyretic potential
[2]; 10 mg/kg of chondrofolinol
  percent inhibition of carrageenan-induced paw edema: 32.12%
[2]; 20 mg/kg of chondrofolinol
  percent inhibition of carrageenan-induced paw edema: 53.34%
[2]; 10 and 20 mg/kg of body weight
  paw volume in carrageenan-induced paw edema: significantly reduced
[1]; 48 h incubation
  inhibition of the promastigotes of Leishmania tropica: ~100%
[1]
  anti-leishmanial properties: strong anti-leishmanial properties

## COc1ccc2c(c1OC)C(C(Cl)(Cl)Cl)N1CCc3cc4c(cc3C1=C2)OCO4 (centres unmarked) [Compound 5, 8-trichloromethyldihydroberberine]
yeast-induced pyrexia
  activity against yeast-induced hyperthermia: significantly active
[1]
  anti-leishmanial properties: strong anti-leishmanial properties
